Here are results for 17 molecules from patent US9012431B2, “Boron-containing small molecules as anti-inflammatory agents” (Anacor Pharmaceuticals, Inc., priority 2008, dated 2015).

For orientation: IC50 means the concentration that inhibits the measured activity by half.

The subject of one test is IL-10. In words: Cytokine assay, IL-10 release from PBMC. The following applies: human PBMC, 20 ug/mL PHA, supernatant at 48 hours. Format: cell-based. An outline of the steps:
(§1)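 Inhibition of cytokine release was assessed in thawed human PBMC cultured in RPMI 1640 plus 10% FBS, with compound tested at four concentrations from 0.01 to 10 μM.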

The next test concerns IL-5. Briefly: Cytokine assay, IL-5 release from PBMC. Format: cell-based. The following applies: human PBMC, 20 ug/mL PHA, supernatant at 48 hours. The gist of the method: as §1
Test [1] has as its system T1, PDE4 partially purified from human U-937 myeloid leukemia cells.
T1 construct: PDE4 partially purified from human U-937 myeloid leukemia cells was used
Briefly: PDE4 Assay (enzyme from U-937 cells, [3H]cAMP). Format: biochemical. Conditions: PDE4 from U-937 cells, Tris buffer pH 7.5, 20 minutes at 25° C.

A further test deals with IFN-γ. Briefly: Cytokine assay, IFN-γ release from PBMC. Format: cell-based. Conditions: human PBMC, 20 ug/mL PHA, supernatant at 24 hours. The gist of the method: as §1
The test system of the next test is TNF-α. In words: Cytokine assay, TNF-α release from PBMC. The following applies: Homo sapiens, PBMC, 24 h, 1 μg/mL LPS, supernatant at 24 hours. The test is classed as cell-based. The gist of the method:
as §1

The next test relates to IL-2. In words: Cytokine assay, IL-2 release from PBMC. The test is classed as cell-based. The following applies: human PBMC, 20 ug/mL PHA, supernatant at 24 hours. An outline of the steps: as §1

Some results are limits rather than exact numbers.

As to `CC(C)S(=O)(=O)c1ccc(Oc2ccc3c(c2)COB3O)cc1` [D104, 5-(4-(isopropylsulfonyl)phenoxy)benzo[c][1,2]oxaborol-1 (3H)-ol], the IC50 with IL-10 is 4000 to 10000 nM; in the test with IL-5, 4000 to 10000 nM; in test [1], less than 1000 nM; in the test with IFN-γ, 1000 to 4000 nM; in the test on TNF-α, 1000 to 4000 nM; in the test on IL-2, 1000 to 4000 nM.
For the molecule `CCS(=O)(=O)c1ccc(Oc2ccc3c(c2)COB3O)cc1` [D105, 5-(4-(ethylsulfonyl)phenoxy)benzo[c][1,2]oxaborol-1 (3H)-ol], the IC50 lay within 1000 to 4000 nM in the test on IL-10; 4000 to 10000 nM in the test on IL-5; 1000 to 4000 nM in test [1]; 1000 to 4000 nM in the test with IFN-γ; 1000 to 4000 nM in the test on TNF-α; 1000 to 4000 nM in the test with IL-2.
Take `N#Cc1ccc(NCCO)nc1Oc1ccc2c(c1)COB2O` [D106, 2-(1-Hydroxy-1,3-dihydro-benzo[c][1,2]oxaborol-5-yloxy)-6-(2-hydroxy-ethylamino)-nicotinonitrile]: the IC50 in the test on IL-10 is 4000 to 10000 nM; with IL-5, less than 1000 nM; in test [1], less than 1000 nM; in the test on IFN-γ it was less than 1000 nM; in the test on TNF-α it was less than 1000 nM; with IL-2, less than 1000 nM.
Take `COc1nc(Oc2ccc3c(c2)COB3O)ccc1C(N)=O` [D112, 6-(1-Hydroxy-1,3-dihydro-benzo[c][1,2]oxaborol-5-yloxy)-2-methoxy-nicotinamide]: the IC50 in the test with IL-10 is less than 1000 nM; with IL-5, 1000 to 4000 nM; in test [1], less than 1000 nM; in the test on IFN-γ, less than 1000 nM; in the test with TNF-α, less than 1000 nM; with IL-2 it was less than 1000 nM.
As for `N#Cc1ccc(Oc2ccc3c(c2)COB3O)nc1NCCOCc1ccccc1` [D113, 2-(2-Benzyloxy-ethylamino)-6-(1-hydroxy-1,3-dihydro-benzo[c][1,2]oxaborol-5-yloxy)-nicotinonitrile], the IC50 in the test with IL-10 was 4000 to 10000 nM; with IL-5, less than 1000 nM; in test [1], less than 1000 nM; in the test on IFN-γ, less than 1000 nM; in the test with TNF-α it was less than 1000 nM; in the test with IL-2, less than 1000 nM.
Take `CN(CCO)c1nc(Oc2ccc3c(c2)COB3O)ccc1C#N` [D115, 6-(1-Hydroxy-1,3-dihydro-benzo[c][1,2]oxaborol-5-yloxy)-2-[(2-hydroxy-ethyl)-methyl-amino]-nicotinonitrile]: the IC50 is 4000 to 10000 nM in the test on IL-10; less than 1000 nM in the test with IL-5; less than 1000 nM in test [1]; less than 1000 nM in the test with IFN-γ; less than 1000 nM in the test with TNF-α; less than 1000 nM in the test on IL-2.
Consider `COc1nc(Oc2ccc3c(c2)COB3O)ncc1C#N` [D116, 2-(1-Hydroxy-1,3-dihydro-benzo[c][1,2]oxaborol-5-yloxy)-4-methoxy-pyrimidine-5-carbonitrile], for which the IC50 in the test with IL-10 was 1000 to 4000 nM; in the test on IL-5 it was less than 1000 nM; in test [1], less than 1000 nM; in the test on IFN-γ, less than 1000 nM; in the test on TNF-α, less than 1000 nM; in the test with IL-2 it was less than 1000 nM.
On to `N#Cc1cnc(Oc2ccc3c(c2)COB3O)cc1OCCOC1CCCCO1` (stereo not drawn) [D118, 6-(1-Hydroxy-1,3-dihydro-benzo[c][1,2]oxaborol-5-yloxy)-4-[2-(tetrahydro-pyran-2-yloxy)-ethoxy]-nicotinonitrile], for which the IC50 with IL-10 is 1000 to 4000 nM; in the test on IL-5, less than 1000 nM; in test [1], less than 1000 nM; in the test with IFN-γ, less than 1000 nM; with TNF-α it was less than 1000 nM; in the test on IL-2, less than 1000 nM.
Turning to `N#Cc1cnc(Oc2ccc3c(c2)COB3O)cc1OCCO` [D119, 6-(1-Hydroxy-1,3-dihydro-benzo[c][1,2]oxaborol-5-yloxy)-4-(2-hydroxy-ethoxy)-nicotinonitrile], the IC50 (in the test on IL-10; in the test on IL-5; in test [1]; in the test with IFN-γ; with TNF-α; with IL-2) was less than 1000 nM throughout.
Turning to `CCOc1cc(Oc2ccc3c(c2)COB3O)ncc1C#N` [D120, 4-Ethoxy-6-(1-hydroxy-1,3-dihydro-benzo[c][1,2]oxaborol-5-yloxy)-nicotinonitrile], the IC50 (in the test with IL-10; in the test with IL-5; in test [1]; in the test on IFN-γ; with TNF-α; in the test on IL-2) was less than 1000 nM in each case.
For `N#Cc1cnc(Oc2ccc3c(c2)COB3O)c(O)c1` [D123, 5-Hydroxy-6-(1-hydroxy-1,3-dihydro-benzo[c][1,2]oxaborol-5-yloxy)-nicotinonitrile], the IC50 in the test on IL-10 was 1000 to 4000 nM; in the test on IL-5, 1000 to 4000 nM; in test [1], less than 1000 nM; in the test with IFN-γ, less than 1000 nM; with TNF-α it was less than 1000 nM; with IL-2, less than 1000 nM.
Take `N#Cc1ccc(Oc2ccc3c(c2)COB3O)nc1OCC(F)(F)F` [D125, 6-(1-Hydroxy-1,3-dihydro-benzo[c][1,2]oxaborol-5-yloxy)-2-(2,2,2-trifluoro-ethoxy)-nicotinonitrile]: the IC50 (with IL-10; in the test on IL-5; in test [1]; with IFN-γ; in the test with TNF-α; in the test with IL-2) was less than 1000 nM in each case.
Take `CC(=O)OCCOc1nc(Oc2ccc3c(c2)COB3O)ccc1C#N` [D126, 2-[3-cyano-6-(1-hydroxy-1,3-dihydro-benzo[c][1,2]oxaborol-5-yloxy)-pyridin-2-yloxy]-ethyl acetate]: the half-inhibitory concentration (IC50) (in the test on IL-10; in the test on IL-5; in test [1]; in the test on IFN-γ; in the test on TNF-α; in the test with IL-2) was less than 1000 nM throughout.
For `N#Cc1ccc(Oc2ccc3c(c2)COB3O)nc1OCC(F)F` [D127, 2-(2,2-Difluoro-ethoxy)-6-(1-hydroxy-1,3-dihydro-benzo[c][1,2]oxaborol-5-yloxy)-nicotinonitrile], the IC50 (in the test with IL-10; in the test on IL-5; in test [1]; with IFN-γ; with TNF-α; in the test on IL-2) was less than 1000 nM in each case.
On to `CC(C)Oc1nc(Oc2ccc3c(c2)COB3O)ccc1C#N` [D128, 6-(1-Hydroxy-1,3-dihydro-benzo[c][1,2]oxaborol-5-yloxy)-2-isopropoxy-nicotinonitrile], for which the IC50 (in the test on IL-10; in the test on IL-5; in test [1]; with IFN-γ; in the test on TNF-α; with IL-2) was less than 1000 nM in each case.
Consider `N#Cc1ccc(Oc2ccc3c(c2)COB3O)nc1N` [D130, 2-amino-6-(1-hydroxy-1,3-dihydro-benzo[c][1,2]oxaborol-5-yloxy)-nicotinonitrile], for which the IC50 (with IL-10; in the test on IL-5; in test [1]; in the test on IFN-γ; in the test on TNF-α; in the test with IL-2) was less than 1000 nM throughout.
Turning to `CCCOc1nc(Oc2ccc3c(c2)COB3O)ccc1C#N` [D131, 6-(1-Hydroxy-1,3-dihydro-benzo[c][1,2]oxaborol-5-yloxy)-2-propoxy-nicotinonitrile], the IC50 (in the test on IL-10; in the test with IL-5; in test [1]; in the test on IFN-γ; in the test with TNF-α; in the test on IL-2) was less than 1000 nM each time.
